For 17 compounds, Ki, logD and efflux ratio results are on record in ChEMBL document CHEMBL4385643, “Design of a brain-penetrant CDK4/6 inhibitor for glioblastoma” (Bioorg Med Chem Lett, 2019).

Some targets named below: CDK1/Cyclin A (Homo sapiens, UniProt P06493); CDK6/cyclin D3 (Homo sapiens, UniProt Q00534); CDK4/Cyclin D3 (Homo sapiens, UniProt P11802).
The target of series [1] is Cyclin-dependent kinase 2/cyclin E1 (Homo sapiens, UniProt P24941). Nature of the series: Inhibition of human full length GST-tagged CDK2 (1 to 298(end) amino acids)/Cyclin E1 (1 to 410(end) amino acids) expressed in baculovirus expression system assessed as inhibition constant using Ulight-4E-BP1 as substrate preincubated for 30 mins followed by substrate addition and incubated for 90 mins by TR-FRET assay. In general terms: Time-resolved FRET reads energy transfer from a long-lived donor to a nearby acceptor.

The nature of series [2]: Lipophilicity, log D of the compound by microscale shake flask method. The format is physicochemical. The note with it: octanol/water.
A further series relates to mouse Bcrp1. Nature of the series: in vitro. The note with it: dog.
For a further series, the system named is human MDR1. Nature of the series: in vitro. The settings on record: dog, MDCK-MDR1.

Chain of CDK4/Cyclin D3 (P11802 whole entry): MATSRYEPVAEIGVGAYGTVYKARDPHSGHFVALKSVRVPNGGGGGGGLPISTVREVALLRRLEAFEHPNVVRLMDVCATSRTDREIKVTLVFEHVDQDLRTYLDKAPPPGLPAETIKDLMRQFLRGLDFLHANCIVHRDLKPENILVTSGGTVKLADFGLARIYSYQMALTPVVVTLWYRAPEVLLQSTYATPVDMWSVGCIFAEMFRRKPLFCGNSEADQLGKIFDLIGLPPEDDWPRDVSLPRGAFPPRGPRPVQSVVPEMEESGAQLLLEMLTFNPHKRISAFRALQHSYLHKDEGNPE
Chain of CDK4/Cyclin D3 (P30281 whole entry, further chain): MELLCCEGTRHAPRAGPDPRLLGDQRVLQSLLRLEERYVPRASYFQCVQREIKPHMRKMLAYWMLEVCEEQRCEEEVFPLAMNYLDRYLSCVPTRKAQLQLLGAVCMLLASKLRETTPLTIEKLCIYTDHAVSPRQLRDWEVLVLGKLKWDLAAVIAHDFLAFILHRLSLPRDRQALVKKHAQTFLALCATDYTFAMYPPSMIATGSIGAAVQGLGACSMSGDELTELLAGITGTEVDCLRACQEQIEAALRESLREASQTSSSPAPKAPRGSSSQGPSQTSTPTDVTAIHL
Chain of CDK1/Cyclin A (P06493 whole entry): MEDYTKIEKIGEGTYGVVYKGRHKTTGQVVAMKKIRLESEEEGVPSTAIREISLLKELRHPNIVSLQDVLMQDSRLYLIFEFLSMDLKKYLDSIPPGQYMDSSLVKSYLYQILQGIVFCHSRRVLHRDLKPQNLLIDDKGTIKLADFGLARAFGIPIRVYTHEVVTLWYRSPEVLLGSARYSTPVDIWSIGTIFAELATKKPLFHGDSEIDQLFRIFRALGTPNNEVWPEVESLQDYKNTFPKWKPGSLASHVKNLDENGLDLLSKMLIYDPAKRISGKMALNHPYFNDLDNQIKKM
Chain of CDK1/Cyclin A (P20248 whole entry, further chain): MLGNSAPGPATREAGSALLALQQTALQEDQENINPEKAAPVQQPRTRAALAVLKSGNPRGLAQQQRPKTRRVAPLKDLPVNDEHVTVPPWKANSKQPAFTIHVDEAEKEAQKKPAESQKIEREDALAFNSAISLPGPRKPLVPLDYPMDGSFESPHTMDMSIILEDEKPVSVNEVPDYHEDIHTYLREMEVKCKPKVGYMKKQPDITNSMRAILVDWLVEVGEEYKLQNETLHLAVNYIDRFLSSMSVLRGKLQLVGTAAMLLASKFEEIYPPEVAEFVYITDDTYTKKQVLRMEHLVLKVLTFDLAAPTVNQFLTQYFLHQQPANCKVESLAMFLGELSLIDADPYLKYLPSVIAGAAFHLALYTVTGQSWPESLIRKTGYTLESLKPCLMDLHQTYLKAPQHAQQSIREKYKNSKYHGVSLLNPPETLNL
Chain of CDK6/cyclin D3 (P30281 whole entry): as the sequence (P30281 whole entry, further chain) above
Chain of CDK6/cyclin D3 (Q00534 whole entry): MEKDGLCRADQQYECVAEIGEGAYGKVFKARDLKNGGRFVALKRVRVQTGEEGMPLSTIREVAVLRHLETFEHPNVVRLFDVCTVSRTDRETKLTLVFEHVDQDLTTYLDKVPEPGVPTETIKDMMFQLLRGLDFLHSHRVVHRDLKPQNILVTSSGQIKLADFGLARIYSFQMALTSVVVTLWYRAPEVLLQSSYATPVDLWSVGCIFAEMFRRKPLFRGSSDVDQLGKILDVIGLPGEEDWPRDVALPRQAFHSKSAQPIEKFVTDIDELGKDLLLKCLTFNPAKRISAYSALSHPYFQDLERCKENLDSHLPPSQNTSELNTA
Description for CDK1/Cyclin A: Inhibition of human recombinant full length GST-tagged CDK1/Cyclin A2 expressed in sf9 insect cells assessed as inhibition constant using Ulight-4E-BP1 as substrate preincubated for 30 mins followed by substrate addition and incubated for 90 mins by TR-FRET assay
Description for CDK4/Cyclin D3: Inhibition of human full length GST-tagged CDK4 (1 to 303(end) amino acids)/Cyclin D3 (1 to 292(end) amino acids) expressed in baculovirus expression system assessed as inhibition constant using Ulight-4E-BP1 as substrate preincubated for 30 mins followed by substrate addition and incubated for 90 mins by TR-FRET assay
Description for CDK6/cyclin D3: Inhibition of human full length GST-tagged CDK6 (1 to 326(end) amino acids)/Cyclin D3 (1 to 292(end) amino acids) expressed in baculovirus expression system assessed as inhibition constant using Ulight-4E-BP1 as substrate preincubated for 30 mins followed by substrate addition and incubated for 90 mins by TR-FRET assay
Description for human MDR1: Efflux ratio in gMDCKI cells expressing human MDR1
Description for mouse Bcrp1: Efflux ratio in MDCK2 expressing mouse bcrp1

Regarding `CC(C)c1n[nH]cc1-c1ccnc(NC2CCCCC2)n1`, the Ki on CDK1/Cyclin A amounted to 24 nM; at CDK6/cyclin D3, 450 nM; at CDK4/Cyclin D3, 18 nM; in series [1] it was 22 nM.
For the compound `C[C@@H]1CCCCn2ncc(-c3nc(Nc4ccc(C5CCN(C)CC5)cn4)ncc3F)c21`, the Ki on CDK1/Cyclin A came to 280 nM; at CDK6/cyclin D3, 18 nM; on CDK4/Cyclin D3, 0.8 nM.
The like results for `C[C@@H]1CCCCn2ncc(-c3nc(Nc4ccc(N5CCC(N(C)C)CC5)cn4)ncc3F)c21` were, in that order, 210 nM, 10 nM and 1 nM.
The like results for `CCN1CCN(Cc2ccc(Nc3ncc(F)c(-c4cnn5c4[C@H](C)CCCC5)n3)nc2)CC1` were, in that order, 630 nM, 37 nM and 1.3 nM.
The like results for `C[C@H]1CCCn2ncc(-c3nc(Nc4ccc(N5CCN(C)CC5)cn4)ncc3F)c21` were, in that order, 980 nM, 38 nM and 3.8 nM.
Consider `C[C@@H]1CCCCn2ncc(-c3nc(Nc4ccc(N5CC6(CN(CCCF)C6)C5)cn4)ncc3F)c21`, for which the results for the Ki on CDK1/Cyclin A, at CDK6/cyclin D3 and at CDK4/Cyclin D3 were 110 nM, 3.3 nM and below 0.3 nM, respectively.
On to `C[C@@H]1CCCCn2ncc(-c3nc(Nc4ccc(N5CC6(C5)CN(C5COC5)C6)cn4)ncc3F)c21`, for which the results for the Ki on CDK1/Cyclin A, at CDK6/cyclin D3 and at CDK4/Cyclin D3 were 77 nM, 4.3 nM and 0.4 nM, respectively.
`C[C@@H]1CCCn2ncc(-c3nc(Nc4ccc(N5CCN(C)CC5)cn4)ncc3F)c21`: the results for the Ki on CDK1/Cyclin A, at CDK6/cyclin D3 and on CDK4/Cyclin D3 were 770 nM, 19 nM and 1.4 nM, respectively.
For the compound `CN1CCN(c2ccc(Nc3ncc(F)c(-c4cnn5c4CCCCC5)n3)nc2)CC1`, the inhibition constant Ki at CDK1/Cyclin A was determined as 1300 nM; on CDK6/cyclin D3 it was 24 nM; at CDK4/Cyclin D3, 1.8 nM.
The like results for `C[C@@H]1CCCCn2ncc(-c3nc(Nc4ccc(N5CCOCC5)cn4)ncc3F)c21` were, in that order, 70 nM, 7.9 nM and 0.4 nM.
`COCCN1CCC(Nc2nccc(-c3cnn4c3CCCC4)n2)CC1`: the Ki on CDK1/Cyclin A turned out to be 5200 nM; at CDK6/cyclin D3 it was 7400 nM; at CDK4/Cyclin D3, 210 nM; in series [1], 7500 nM.
In series [2], `C[C@@H]1CCCCn2ncc(-c3nc(Nc4ccc(N5CC6(CN(CCF)C6)C5)cn4)ncc3F)c21` showed a pH-dependent lipophilicity (logD) of 2.8. For the same compound, the efflux ratio was 0.9 with mouse Bcrp1 and 2 in the series with human MDR1. Besides, the Ki at CDK1/Cyclin A is 52 nM; at CDK6/cyclin D3, 1.6 nM; at CDK4/Cyclin D3 it was below 0.3 nM.
As for `COCCN1CCC(Nc2nccc(-c3cn[nH]c3C(C)C)n2)CC1`, the inhibitory constant (Ki) stood at 270 nM at CDK1/Cyclin A, 720 nM on CDK6/cyclin D3, 20 nM at CDK4/Cyclin D3 and 320 nM in series [1].
In the case of `CN1CCN(c2ccc(Nc3ncc(F)c(-c4cnn5c4CCCC5)n3)nc2)CC1`, the Ki amounted to 2000 nM on CDK1/Cyclin A, 40 nM on CDK6/cyclin D3 and 3.6 nM at CDK4/Cyclin D3.
For `CN1CCN(c2ccc(Nc3nccc(-c4cnn5c4CCCC5)n3)nc2)CC1`, the inhibitory constant (Ki) on CDK1/Cyclin A was 29000 nM; at CDK6/cyclin D3 it was 1900 nM; at CDK4/Cyclin D3, 61 nM; in series [1] it was 15000 nM.
For the compound `CC(C)c1c(-c2nc(Nc3ccc(N4CCN(C)CC4)cn3)ncc2F)cnn1C`, the inhibition constant (Ki) on CDK1/Cyclin A came out at 530 nM; at CDK6/cyclin D3 it was 32 nM; on CDK4/Cyclin D3, 2.7 nM.
Turning to `C[C@@H]1CCCCn2ncc(-c3nc(Nc4ccc(N5CC6(CN(C)C6)C5)cn4)ncc3F)c21`, the Ki at CDK1/Cyclin A was 63 nM; at CDK6/cyclin D3, 1.7 nM; on CDK4/Cyclin D3 it was below 0.3 nM.

As a reminder, the Ki is a dissociation constant, usually derived from enzyme kinetics or from competition with a known ligand. One may read the logD as the decadic logarithm of the distribution of all forms, ionised or not, between an organic phase and buffer at a given pH. The efflux ratio is the permeability from basolateral to apical divided by that in the opposite direction, in the common usage.
